The test system of this series is human islets. The series can be described thus: Islet viability and morphology assessment (PI/HO or FDA, DTZ staining). The following applies: 4 weeks in 3D hydrogel with 100 nM gastrin. Type of series: cell-based. The procedure: Islet cells were stained with 10 μg/mL propidium iodide (PI) (Millipore Sigma, St. Louis, MO, USA) and 10 μg/mL of Hoechst 33342 (HO) (Thermo Fisher Scientific, Waltham, MA) for 5 minutes at room temperature, washed with PBS, then placed on a 6-well plate. The images of PI/HO staining were taken under a IXDP50 Olympus fluorescent microscope with DP74 camera using a 4× objective lens (Olympus America). Viability was determined by the area of PI staining divided by the area of HO staining analyzed by CellSens software. For the experiment with gastrin culture, 0.5 μM Fluorescein diacetate (FDA) solution (Millipore Sigma) was used instead of HO to determine the viable total islets. The viability was determined by the area of PI staining divided by the total islet area analyzed by CellSens software. Islet morphology was evaluated by dithizone (DTZ) staining.

Non-standard residues stand in square brackets, D forms with d. Residues, ends and D or L forms follow the SMILES beside them. pGlu = O=C1CC[C@@H](C(=O)O)N1

As for `CC(C)C[C@H](NC(=O)[C@H](Cc1c[nH]c2ccccc12)NC(=O)CNC(=O)[C@H](Cc1ccc(O)cc1)NC(=O)[C@H](C)NC(=O)[C@H](CCC(=O)O)NC(=O)[C@H](CCC(=O)O)NC(=O)[C@H](CCC(=O)O)NC(=O)[C@H](CCC(=O)O)NC(=O)[C@H](CCC(=O)O)NC(=O)[C@H](CC(C)C)NC(=O)[C@H](Cc1c[nH]c2ccccc12)NC(=O)[C@@H]1CCCN1C(=O)CNC(=O)[C@@H]1CCC(=O)N1)C(=O)N[C@@H](CC(=O)O)C(=O)N[C@@H](Cc1ccccc1)C(N)=O` [gastrin, [Leu15]-gastrin I] ([pGlu]GPWLEEEEEAYGWLDF-NH2), the islet viability worked out at 92±6%.

Source of the values: US20230407265A1, “COMPOSITION AND METHODS FOR 3D CULTURE OF ISLET CELLS” (CITY OF HOPE, priority 2022, published 2023).
